{
  "source": "ChEMBL document CHEMBL2069271",
  "about": "“Design, synthesis, stereochemistry and antioxidant properties of various 7-alkylated 2,4-diaryl-3-azabicyclo[3.3.1]nonan-9-ones” (Bioorg Med Chem Lett, 2012)",
  "key": {"[1]": {"test_system": "Radical scavenging activity", "experiment": "Antioxidant activity assessed as inhibition of DPPH radical generation relative to alpha-tocopherol", "type": "functional", "set-up": "scale not given: the % may be the effect or the level left"}, "[2]": {"test_system": "Radical scavenging activity", "experiment": "Antioxidant activity assessed as inhibition of DPPH radical generation", "type": "functional"}, "[3]": {"experiment": "Oral bioavailability in rat at 500 mg/kg", "type": "ADME, organism-based", "details": "in vivo"}},
  "data": [
    {"smiles": "COc1cc(C2NC(c3cc(OC)c(OC)c(OC)c3)C3CC(C)CC2C3=O)cc(OC)c1OC", "note": "(stereo unspecified)", "values": [
      {"measurement": "Activity", "setting": "[1]", "value": 20, "unit": "%"}
    ]},
    {"smiles": "COc1ccc(C2NC(c3ccc(OC)c(OC)c3)C3CC(C)CC2C3=O)cc1OC", "note": "(stereo unspecified)", "values": [
      {"measurement": "Activity", "setting": "[1]", "value": 20, "unit": "%"}
    ]},
    {"smiles": "COc1ccc(OC)c(C2NC(c3cc(OC)ccc3OC)C3CC(C)CC2C3=O)c1", "note": "(stereo unspecified)", "values": [
      {"measurement": "Activity", "setting": "[1]", "value": 20, "unit": "%"}
    ]},
    {"smiles": "Cc1c(C)c2c(c(C)c1O)CC[C@@](C)(CCC[C@H](C)CCC[C@H](C)CCCC(C)C)O2", "note": "[ALPHA-TOCOPHEROL]", "values": [
      {"measurement": "IC50", "setting": "[2]", "value": 59, "unit": "µM"}
    ]},
    {"smiles": "COc1cc(/C=C/C(=O)CC(=O)/C=C/c2ccc(O)c(OC)c2)ccc1O", "note": "[CURCUMIN]", "values": [
      {"measurement": "IC50", "setting": "[2]", "value": 35.1, "unit": "µM"},
      {"measurement": "bioavailability", "setting": "[3]", "value": 1, "unit": "%"}
    ]}
  ]
}
